Assay results: patent US20250222116A1, “PARP-1 DEGRADATION AGENT AND USE THEREOF” (XIZANG HAISCO PHARMACEUTICAL CO., LTD., priority 2021, published 2025)

Biological target: PARP1 (Homo sapiens (Human), UniProt P09874)
Experiment: PARP1 protein expression level in MDA-MB-436 cells
Type: cell-based
Details: 24 hours
Method: (§1) MDA-MB-436 cells were placed in a complete DMEM medium (supplemented with 15% FBS; 10 μg/mL Insulin; 16 μg/mL Glutathione and 1% penicillin-streptomycin solution), and cultured at 37° C. under CO2-free conditions. The cells in the logarithmic growth phase were collected, the cell density was adjusted to 2×10^5 cells/well with the culture medium, and the cells were added to a 6-well cell culture plate at a volume of 1 mL/well. The compound to be tested was prepared to 2-fold the final concentration, 1 mL of the compounds at different concentrations were added to administration wells, a medium containing 0.2% DMSO was added to control wells, and the plate was incubated for 24 hours at 37° C. The cells were collected into a 1.5 mL centrifuge tube, 25 μL of RIPA lysis buffer (containing 1× protease inhibitor cocktail) was added, and the cells were lysed on ice for 15 minutes and centrifuged at 12000 rpm/min at 4° C. for 10 minutes. The supernatant was collected and the protein content was determined using the BCA method. The protein sample to be tested was diluted to 0.8 mg/mL, PARP1 was detected using a fully automated protein expression quantitative analyzer (ProteinSimple), and the internal reference protein was 3-actin (both antibodies were from CST). The software (Compass for SW) of the fully automated protein expression quantitative analyzer was used to process the raw data and calculate the peak area and the PARP1 expression rate relative to the control group.
as §1, with “L-15” for “DMEM”, “mL/well and cultured overnight. On day 2, the” for “mL/well. The”, “group. DC50 values were calculated using a four-parameter non-linear fitting model in Graphpad 8.3.0 software.” for “group.”

Chain of PARP1 (P09874 whole entry): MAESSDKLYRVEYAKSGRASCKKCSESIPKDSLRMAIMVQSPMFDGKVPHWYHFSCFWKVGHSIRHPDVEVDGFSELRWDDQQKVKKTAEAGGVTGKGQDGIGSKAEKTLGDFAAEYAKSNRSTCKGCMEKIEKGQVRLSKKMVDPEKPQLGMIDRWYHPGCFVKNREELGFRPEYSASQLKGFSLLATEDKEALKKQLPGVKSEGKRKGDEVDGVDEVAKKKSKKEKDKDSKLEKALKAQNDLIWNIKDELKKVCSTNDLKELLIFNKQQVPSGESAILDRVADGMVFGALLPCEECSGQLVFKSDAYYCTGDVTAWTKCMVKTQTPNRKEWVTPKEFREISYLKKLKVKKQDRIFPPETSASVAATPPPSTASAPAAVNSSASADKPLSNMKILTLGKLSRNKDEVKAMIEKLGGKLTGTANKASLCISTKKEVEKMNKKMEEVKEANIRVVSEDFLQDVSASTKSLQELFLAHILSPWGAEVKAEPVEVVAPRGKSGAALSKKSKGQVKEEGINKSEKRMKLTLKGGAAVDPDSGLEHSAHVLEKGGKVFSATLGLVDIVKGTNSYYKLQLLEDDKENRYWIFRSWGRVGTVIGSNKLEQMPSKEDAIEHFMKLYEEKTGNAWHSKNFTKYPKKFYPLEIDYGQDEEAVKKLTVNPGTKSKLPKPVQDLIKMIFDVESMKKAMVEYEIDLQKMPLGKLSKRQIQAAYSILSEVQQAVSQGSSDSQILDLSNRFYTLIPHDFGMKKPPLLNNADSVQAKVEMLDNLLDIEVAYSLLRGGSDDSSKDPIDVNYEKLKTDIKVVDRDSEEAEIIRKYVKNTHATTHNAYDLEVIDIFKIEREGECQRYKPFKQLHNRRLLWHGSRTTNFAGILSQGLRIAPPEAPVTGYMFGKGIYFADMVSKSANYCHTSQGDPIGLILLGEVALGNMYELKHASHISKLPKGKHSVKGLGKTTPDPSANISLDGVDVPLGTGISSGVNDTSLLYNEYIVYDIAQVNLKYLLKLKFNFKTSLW

SMILES: CCc1cc2ncc(CN3CCN(c4ccc(C(=O)NC5CCN(c6ccc7c(c6)C(=O)N(C6CCC(=O)NC6=O)C7=O)CC5)nc4)CC3)cc2[nH]c1=O (centres unmarked) [Compound 10, N-(1-(2-(2,6-dioxopiperidin-3-yl)-1,3-dioxoisoindolin-5-yl)piperidin-4-yl)-5-(4-((7-ethyl-6-oxo-5,6-dihydro-1,5-naphthyridin-3-yl)methyl)piperazin-1-yl)picolinamide]
- PARP1 degradation rate @ 100 nM (100 nM): 79%
- DC50: 0.014 nM
